The values that follow come from ChEMBL document CHEMBL4476883, “Hydroxy formamide derivatives and their use” (2017).

The target of assay [1] is T1, Bone morphogenetic protein 1 (Homo sapiens, UniProt P13497).
T1 sequence (P13497 whole entry): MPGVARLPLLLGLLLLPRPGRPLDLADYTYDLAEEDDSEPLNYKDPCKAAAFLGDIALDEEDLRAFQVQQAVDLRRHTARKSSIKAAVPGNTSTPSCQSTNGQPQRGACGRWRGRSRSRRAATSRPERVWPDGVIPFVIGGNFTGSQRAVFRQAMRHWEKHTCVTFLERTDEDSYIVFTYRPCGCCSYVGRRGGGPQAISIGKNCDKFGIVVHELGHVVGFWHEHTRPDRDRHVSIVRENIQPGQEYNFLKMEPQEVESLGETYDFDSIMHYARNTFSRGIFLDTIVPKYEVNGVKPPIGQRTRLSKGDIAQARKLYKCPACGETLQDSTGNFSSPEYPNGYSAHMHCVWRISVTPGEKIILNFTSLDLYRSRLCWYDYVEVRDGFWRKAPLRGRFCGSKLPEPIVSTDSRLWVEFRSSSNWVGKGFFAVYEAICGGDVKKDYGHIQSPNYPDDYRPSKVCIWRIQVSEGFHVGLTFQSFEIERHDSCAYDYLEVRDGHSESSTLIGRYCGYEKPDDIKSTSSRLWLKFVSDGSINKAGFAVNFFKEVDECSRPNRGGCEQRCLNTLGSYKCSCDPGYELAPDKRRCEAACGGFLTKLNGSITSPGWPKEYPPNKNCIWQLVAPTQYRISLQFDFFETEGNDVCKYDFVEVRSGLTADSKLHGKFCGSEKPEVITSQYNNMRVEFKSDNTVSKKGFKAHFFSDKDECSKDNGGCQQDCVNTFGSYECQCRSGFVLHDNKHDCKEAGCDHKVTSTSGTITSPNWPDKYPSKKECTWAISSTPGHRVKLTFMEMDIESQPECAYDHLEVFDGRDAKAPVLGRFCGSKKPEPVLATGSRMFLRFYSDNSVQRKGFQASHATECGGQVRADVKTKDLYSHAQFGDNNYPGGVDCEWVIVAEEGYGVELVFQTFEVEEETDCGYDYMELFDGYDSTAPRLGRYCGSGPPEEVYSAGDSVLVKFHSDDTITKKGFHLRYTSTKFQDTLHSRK
Briefly: Inhibition of C-terminal FLAG-6x-His epitope tagged and N-terminal human RAGE signal sequence tagged human BMP1 (23 to 721 amino acids) expressed in CHO-E1A cells pre-incubated for 10 mins before promyostatin peptide substrate addition and measured after 60 mins using 0.5 nM BMP1 by FRET based assay. Type of assay: cell-based.

The target in assay [2] is T1, Bone morphogenetic protein 1. Briefly: Inhibition of C-terminal FLAG-6x-His epitope tagged and N-terminal human RAGE signal sequence tagged human BMP1 (23 to 721 amino acids) expressed in CHO-E1A cells pre-incubated for 10 mins before promyostatin peptide substrate addition and measured after 30 mins using 50 nM BMP1 by FRET based assay. The format is cell-based.
In another assay the target is Tolloid-like protein 1 (Homo sapiens, UniProt O43897, I156V/N221S/V284A). Briefly: Inhibition of recombinant human TLL1 I156V/N221S/V284A mutant expressed in CHOE1A cells pre-incubated for 10 mins before promyostatin peptide substrate addition and measured after 60 mins by FRET based assay. Type of assay: cell-based.
For another assay, the target named is T2, Tolloid-like protein 2 (Homo sapiens, UniProt Q9Y6L7).
T2 sequence (Q9Y6L7 whole entry): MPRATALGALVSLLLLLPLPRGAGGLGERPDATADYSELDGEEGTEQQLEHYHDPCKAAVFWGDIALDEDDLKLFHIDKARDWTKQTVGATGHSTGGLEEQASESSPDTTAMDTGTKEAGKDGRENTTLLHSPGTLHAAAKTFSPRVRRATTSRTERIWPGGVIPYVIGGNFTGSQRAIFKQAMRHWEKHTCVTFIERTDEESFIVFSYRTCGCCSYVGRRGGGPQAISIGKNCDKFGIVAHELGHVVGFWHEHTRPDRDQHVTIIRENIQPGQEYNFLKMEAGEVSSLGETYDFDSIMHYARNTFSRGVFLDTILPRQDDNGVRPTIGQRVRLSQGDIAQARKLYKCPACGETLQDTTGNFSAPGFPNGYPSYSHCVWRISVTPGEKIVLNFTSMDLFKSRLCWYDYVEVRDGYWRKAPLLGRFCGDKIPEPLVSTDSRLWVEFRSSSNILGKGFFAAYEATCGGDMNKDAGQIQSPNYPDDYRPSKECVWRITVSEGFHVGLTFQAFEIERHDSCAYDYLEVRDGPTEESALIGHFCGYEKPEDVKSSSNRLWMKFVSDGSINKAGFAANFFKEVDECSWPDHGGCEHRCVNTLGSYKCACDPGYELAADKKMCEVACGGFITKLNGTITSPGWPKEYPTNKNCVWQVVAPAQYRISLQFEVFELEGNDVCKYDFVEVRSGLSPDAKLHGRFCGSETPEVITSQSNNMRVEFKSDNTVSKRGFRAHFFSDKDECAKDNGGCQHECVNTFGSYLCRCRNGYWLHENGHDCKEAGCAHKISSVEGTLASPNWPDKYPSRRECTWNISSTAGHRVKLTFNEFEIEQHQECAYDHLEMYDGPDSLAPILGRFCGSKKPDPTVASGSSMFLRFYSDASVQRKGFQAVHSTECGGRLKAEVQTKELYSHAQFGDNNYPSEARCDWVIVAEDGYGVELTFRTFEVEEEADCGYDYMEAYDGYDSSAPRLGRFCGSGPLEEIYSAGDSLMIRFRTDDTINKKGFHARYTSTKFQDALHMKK
Briefly: Inhibition of C-terminal Avi-6x-His epitope tagged and N-terminal human RAGE signal sequence tagged recombinant human TLL2 (26 to 1015 amino acids) expressed in CHOE1A cells incubated for 60 mins with promyostatin peptide substrate by FRET based assay. Type of assay: cell-based.

The nature of assay [3]: Reduction in PICP levels in human cardiac fibroblasts incubated for 24 to 48 hrs by ELISA. The format is functional.

Structures are written as SMILES.

Tolloid-like protein 1, sequence (O43897 148-1013 I156V/N221S/V284A limits assumed): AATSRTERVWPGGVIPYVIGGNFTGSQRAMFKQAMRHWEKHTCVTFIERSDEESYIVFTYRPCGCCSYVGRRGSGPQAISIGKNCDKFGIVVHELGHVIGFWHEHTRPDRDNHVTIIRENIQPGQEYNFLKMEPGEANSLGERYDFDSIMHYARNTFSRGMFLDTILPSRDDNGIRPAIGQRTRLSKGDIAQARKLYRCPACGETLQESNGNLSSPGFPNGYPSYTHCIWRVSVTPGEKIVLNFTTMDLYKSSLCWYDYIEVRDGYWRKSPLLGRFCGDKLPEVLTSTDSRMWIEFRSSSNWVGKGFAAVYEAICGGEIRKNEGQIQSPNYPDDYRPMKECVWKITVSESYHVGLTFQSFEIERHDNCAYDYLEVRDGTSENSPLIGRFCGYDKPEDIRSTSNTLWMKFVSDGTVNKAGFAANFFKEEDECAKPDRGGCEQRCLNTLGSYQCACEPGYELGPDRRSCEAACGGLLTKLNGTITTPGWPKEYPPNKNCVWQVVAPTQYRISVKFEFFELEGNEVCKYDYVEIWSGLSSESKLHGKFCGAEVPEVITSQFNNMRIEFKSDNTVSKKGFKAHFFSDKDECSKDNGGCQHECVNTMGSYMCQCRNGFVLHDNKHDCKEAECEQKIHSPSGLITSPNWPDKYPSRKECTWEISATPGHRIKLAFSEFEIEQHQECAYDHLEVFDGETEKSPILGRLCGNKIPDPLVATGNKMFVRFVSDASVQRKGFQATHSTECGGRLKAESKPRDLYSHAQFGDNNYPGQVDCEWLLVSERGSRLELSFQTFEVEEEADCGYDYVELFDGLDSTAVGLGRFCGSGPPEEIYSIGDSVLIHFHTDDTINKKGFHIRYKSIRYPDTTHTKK

Turning to `CCCCC[C@H](CN(O)C=O)C(=O)NCNC(=O)c1cccc(-c2ccc(OC(F)(F)F)cc2)n1`, the IC50 in assay [1] is less than 126 nM; in assay [2], less than 251 nM; on Tolloid-like protein 1, less than 398 nM; on Tolloid-like protein 2 it was less than 631 nM; in assay [3], less than 20000 nM.
The corresponding values for `CCCCC[C@H](CN(O)C=O)C(=O)NCNC(=O)c1cccc(-c2cccc(S(C)(=O)=O)c2)c1` are less than 126 nM, less than 251 nM, less than 398 nM, less than 631 nM and less than 20000 nM.
The matching figures for `CCCCC[C@@H](C(=O)NCNC(=O)c1cccc(-c2ccc(CC(=O)O)c(OCC)c2)n1)[C@@H](CC)N(O)C=O`: less than 126 nM, less than 251 nM, less than 398 nM, less than 631 nM and less than 20000 nM.
The matching figures for `CCCCC[C@H](CN(O)C=O)C(=O)NCNC(=O)c1cc(C(F)(F)F)cc(-c2ccccc2)n1`: less than 126 nM, less than 251 nM, less than 398 nM, less than 631 nM and less than 20000 nM.
With `CCOc1cccc(-c2cccc(C(=O)NCNC(=O)[C@H](CC3CCCC3)CN(O)C=O)c2)c1`, the IC50 in assay [1] was less than 126 nM; in assay [2] it was less than 251 nM; on Tolloid-like protein 1, less than 398 nM; on Tolloid-like protein 2, less than 631 nM; in assay [3] it was less than 20000 nM.
Take `CCCCC[C@H](CN(O)C=O)C(=O)NCNC(=O)c1cccc(-c2ccc(F)c(OC)c2)n1`: the 50% inhibitory concentration (IC50) in assay [1] was less than 126 nM; in assay [2], less than 251 nM; on Tolloid-like protein 1 it was less than 398 nM; on Tolloid-like protein 2 it was less than 631 nM; in assay [3], less than 20000 nM.
The matching figures for `CCCCC[C@@H](C(=O)NCNC(=O)c1cccc(-c2ccc(C(=O)O)c(C(=O)O)c2)n1)[C@@H](CC)N(O)C=O`: less than 126 nM, less than 251 nM, less than 398 nM, less than 631 nM and less than 20000 nM.
The matching figures for `CCCCC[C@H](CN(O)C=O)C(=O)NCNC(=O)c1cccc(-c2cncc(OC)c2)c1`: less than 126 nM, less than 251 nM, less than 398 nM, less than 631 nM and less than 20000 nM.
Turning to `CCCCC[C@H](CN(O)C=O)C(=O)NCNC(=O)c1cccc(-c2ccc(C(F)(F)F)cc2)n1`, the IC50 in assay [1] was less than 126 nM; in assay [2], less than 251 nM; at Tolloid-like protein 1, less than 398 nM; on Tolloid-like protein 2 it was less than 631 nM; in assay [3] it was less than 20000 nM.
As to `CCCCC[C@H](CN(O)C=O)C(=O)NCNC(=O)c1cccc(-c2cccc(OC)c2)n1`, the IC50 in assay [1] is less than 126 nM; in assay [2] it was less than 251 nM; on Tolloid-like protein 1, less than 398 nM; at Tolloid-like protein 2 it was less than 631 nM; in assay [3], less than 20000 nM.
Regarding `CCCCC[C@@H](C(=O)NCNC(=O)c1cccc(-c2ccc(C(=O)N[C@@H](CC(=O)O)C(=O)O)c(OCC(=O)O)c2)n1)[C@@H](CC)N(O)C=O`, the IC50 was less than 126 nM in assay [1]; less than 251 nM in assay [2]; less than 398 nM on Tolloid-like protein 1; less than 631 nM on Tolloid-like protein 2; less than 20000 nM in assay [3].
Regarding `CCCCC[C@@H](C(=O)NCNC(=O)c1cccc(-c2ccc(C(=O)O)c(OCC)c2)n1)[C@@H](CC)N(O)C=O`, the half-inhibitory concentration (IC50) was less than 126 nM in assay [1]; less than 251 nM in assay [2]; less than 398 nM at Tolloid-like protein 1; less than 631 nM at Tolloid-like protein 2; less than 20000 nM in assay [3].
For `CCCCC[C@@H](C(=O)NCNC(=O)c1cccc(-c2cccc(C(=O)O)c2C)n1)[C@@H](CC)N(O)C=O`, the IC50 was less than 126 nM in assay [1]; less than 251 nM in assay [2]; less than 398 nM at Tolloid-like protein 1; less than 631 nM at Tolloid-like protein 2; less than 20000 nM in assay [3].
`CCCCC[C@@H](C(=O)NCNC(=O)c1cccc(-c2ccc(C3(C(=O)O)CC3)cc2)n1)[C@@H](CC)N(O)C=O`: the IC50 in assay [1] is less than 126 nM; in assay [2], less than 251 nM; at Tolloid-like protein 1, less than 398 nM; on Tolloid-like protein 2 it was less than 631 nM; in assay [3], less than 20000 nM.
Turning to `CCCCC[C@H](CN(O)C=O)C(=O)NCNC(=O)c1cccc(-n2cc(C)cn2)c1`, the 50% inhibitory concentration (IC50) in assay [1] is less than 126 nM; in assay [2], less than 251 nM; at Tolloid-like protein 1, less than 398 nM; on Tolloid-like protein 2, less than 631 nM; in assay [3] it was less than 20000 nM.
The matching figures for `CCCCC[C@H](CN(O)C=O)C(=O)NCNC(=O)c1cccc(-c2ccccc2F)c1`: less than 126 nM, less than 251 nM, less than 398 nM, less than 631 nM and less than 20000 nM.
In the case of `CCCCC[C@@H](C(=O)NCNC(=O)c1cncc(-c2ccc(C(=O)O)c(OCC)c2)n1)[C@@H](CC)N(O)C=O`, the IC50 in assay [1] is less than 126 nM; in assay [2] it was less than 251 nM; on Tolloid-like protein 1, less than 398 nM; on Tolloid-like protein 2, less than 631 nM; in assay [3], less than 20000 nM.
With `CCCCC[C@H](CN(O)C=O)C(=O)NCNC(=O)c1cccc(-c2cccc(F)c2)c1`, the IC50 in assay [1] was less than 126 nM; in assay [2], less than 251 nM; at Tolloid-like protein 1, less than 398 nM; on Tolloid-like protein 2, less than 631 nM; in assay [3], less than 20000 nM.
The matching figures for `CCCCC[C@H](CN(O)C=O)C(=O)NCNC(=O)c1cccc(-c2cccc(OCC(F)(F)F)c2)c1`: less than 126 nM, less than 251 nM, less than 398 nM, less than 631 nM and less than 20000 nM.
The matching figures for `CCCCC[C@@H](C(=O)NCNC(=O)c1cccc(-c2cc(C(=O)OCC)cc(S(N)(=O)=O)c2)n1)[C@@H](CC)N(O)C=O`: less than 126 nM, less than 251 nM, less than 398 nM, less than 631 nM and less than 20000 nM.
`CCCCC[C@H](CN(O)C=O)C(=O)NCNC(=O)c1cccc(-c2cccc(O)c2)c1`: the IC50 in assay [1] is less than 126 nM; in assay [2], less than 251 nM; at Tolloid-like protein 1, less than 398 nM; on Tolloid-like protein 2, less than 631 nM; in assay [3], less than 20000 nM.
Consider `CCCCC[C@@H](C(=O)NCNC(=O)c1cccc(-c2cc(OCC)cc(C(=O)O)c2O)n1)[C@@H](CC)N(O)C=O`, for which the half-inhibitory concentration (IC50) was less than 126 nM in assay [1]; less than 251 nM in assay [2]; less than 398 nM on Tolloid-like protein 1; less than 631 nM on Tolloid-like protein 2; less than 20000 nM in assay [3].
